In US7211572B2 (Japan Tobacco Inc., priority 2003, dated 2007):
Where a name gives a salt, the structure may show the parent alone.

Biological target: T1, HIV integrase (Human immunodeficiency virus type 1 group M subtype B, UniProt P12497, F1332H)
T1 construct: HIV integrase full length gene; made in house; host or cells: Escherichia coli BL21(DE3), plasmid pET21a-INH
Test: Determination of enzyme (HIV integrase) inhibitory activity
Type: biochemical
Settings: recombinant HIV integrase (F185H), strand transfer ELISA, absorbance at 450 nm
Summary of the method: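 Full-length integrase with F185H, expressed in E. coli and purified, was reacted for 60 min at 37 °C with compound and biotinylated donor DNA bound to streptavidin plates. Target DNA was added for 10 min, then anti-digoxigenin-peroxidase detection at A450; IC50 from % inhibition versus enzyme-free blank.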

Molecule `O=C1c2c(O)c(=O)c(-c3nccs3)cn2CCN1Cc1ccc(Cl)cc1OCc1ccccc1` [Example 359, 2-(2-benzyloxy-4-chlorobenzyl)-9-hydroxy-7-(thiazol-2-yl)-3,4-dihydro-2H-pyrido[1,2-a]pyrazine-1,8-dione hydrochloride] has an IC50 of 0.01 to 0.1 µM.
For `Cn1ncnc1-c1cn2ccn(Cc3ccc(F)cc3)c(=O)c2c(O)c1=O` [Example 360, 2-(4-fluorobenzyl)-9-hydroxy-7-(2-methyl-2H-1,2,4-triazol-3-yl)-2H-pyrido[1,2-a]pyrazine-1,8-dione hydrochloride], the IC50 was < 0.01 µM.
Molecule `CNC(=O)c1cn2c(c(O)c1=O)C(=O)N(Cc1cccc(Cl)c1F)CC2` [Example 361, N-methyl-2-(3-chloro-2-fluorobenzyl)-9-hydroxy-1,8-dioxo-1,3,4,8-tetrahydro-2H-pyrido[1,2-a]pyrazine-7-carboxamide] has an IC50 of 0.01 to 0.1 µM.
In the case of `CCC(C)(C)C(=O)c1cn2c(c(O)c1=O)C(=O)N(Cc1cccc(Cl)c1)CC2` [Example 362, 2-(3-chlorobenzyl)-7-(2,2-dimethylbutyryl)-9-hydroxy-3,4-dihydro-2H-pyrido[1,2-a]pyrazine-1,8-dione], the IC50 is reported as 0.01 to 0.1 µM.
Molecule `O=C1c2c(O)c(=O)c(-c3ccccn3)cn2CCN1Cc1ccc(F)cc1` [Example 363, 2-(4-fluorobenzyl)-9-hydroxy-7-(pyridin-2-yl)-3,4-dihydro-2H-pyrido[1,2-a]pyrazine-1,8-dione hydrochloride] has an IC50 of 0.01 to 0.1 µM.
`O=c1c(-c2ccccn2)cn2ccn(Cc3cccc(Cl)c3F)c(=O)c2c1O` [Example 364, 2-(3-chloro-2-fluorobenzyl)-9-hydroxy-7-(pyridin-2-yl)-2H-pyrido[1,2-a]pyrazine-1,8-dione hydrochloride] was tested, and the IC50 was < 0.01 µM.
`O=c1c(-c2ccccn2)cn2ccn(Cc3cccc(F)c3)c(=O)c2c1O` [Example 365, 2-(3-fluorobenzyl)-9-hydroxy-7-(pyridin-2-yl)-2H-pyrido[1,2-a]pyrazine-1,8-dione hydrochloride] gave an IC50 of 0.01 to 0.1 µM.
Molecule `CC(=O)Nc1cc(F)ccc1CN1CCn2cc(-c3nccs3)c(=O)c(O)c2C1=O` [Example 366, N-{5-fluoro-2-[9-hydroxy-1,8-dioxo-7-(thiazol-2-yl)-1,3,4,8-tetrahydro-pyrido[1,2-a]pyrazin-2-ylmethyl]phenyl}acetamide hydrochloride] has an IC50 of 0.1 to 1 µM.
For `CC(C)(C)C(=O)c1cn2c(c(O)c1=O)C(=O)N(Cc1cccc(Cl)c1F)CC2` [Example 367, 2-(3-chloro-2-fluorobenzyl)-7-(2,2-dimethylpropionyl)-9-hydroxy-3,4-dihydro-2H-pyrido[1,2-a]pyrazine-1,8-dione hydrochloride], the IC50 was 0.01 to 0.1 µM.
In the case of `O=C(O)c1cc(F)ccc1CN1CCn2cc(-c3nccs3)c(=O)c(O)c2C1=O` [Example 368, 5-fluoro-2-[9-hydroxy-1,8-dioxo-7-(thiazol-2-yl)-1,3,4,8-tetrahydro-pyrido[1,2-a]pyrazin-2-ylmethyl]benzoic acid hydrochloride], the IC50 is reported as 0.01 to 0.1 µM.
With `O=c1c(-c2ccccn2)cn2ccn(Cc3ccc(F)c(F)c3)c(=O)c2c1O` [Example 369, 2-(3,4-difluorobenzyl)-9-hydroxy-7-(pyridin-2-yl)-2H-pyrido[1,2-a]pyrazine-1,8-dione hydrochloride] the IC50 was < 0.01 µM.
`CN(Cc1ccccc1)C(=O)c1cn2c(c(O)c1=O)C(=O)N(Cc1cccc(Cl)c1)CC2` [Example 370, N-benzyl-N-methyl-2-(3-chlorobenzyl)-9-hydroxy-1,8-dioxo-1,3,4,8-tetrahydro-2H-pyrido[1,2-a]pyrazine-7-carboxamide hydrochloride] was tested, and the IC50 was < 0.01 µM.
Work on `O=C(NCc1cccnc1)c1cn2c(c(O)c1=O)C(=O)N(Cc1cccc(Cl)c1)CC2` [Example 371, N-(pyridin-3-ylmethyl)-2-(3-chlorobenzyl)-9-hydroxy-1,8-dioxo-1,3,4,8-tetrahydro-2H-pyrido[1,2-a]pyrazine-7-carboxamide hydrochloride] yielded an IC50 of 0.01 to 0.1 µM.
In the case of `O=C(NCc1ccccn1)c1cn2c(c(O)c1=O)C(=O)N(Cc1cccc(Cl)c1)CC2` [Example 372, N-(pyridin-2-ylmethyl)-2-(3-chlorobenzyl)-9-hydroxy-1,8-dioxo-1,3,4,8-tetrahydro-2H-pyrido[1,2-a]pyrazine-7-carboxamide hydrochloride], the IC50 is reported as 0.01 to 0.1 µM.
For `O=C1c2c(O)c(=O)c(-c3ccccn3)cn2CCN1Cc1ccc(Cl)c(Cl)c1` [Example 373, 2-(3,4-dichlorobenzyl)-9-hydroxy-7-(pyridin-2-yl)-3,4-dihydro-2H-pyrido[1,2-a]pyrazine-1,8-dione trifluoroacetate], the IC50 was < 0.01 µM.
`CC(=O)CNC(=O)c1cn2c(c(O)c1=O)C(=O)N(Cc1cccc(Cl)c1)CC2` [Example 374, N-(2-oxopropyl)-2-(3-chlorobenzyl)-9-hydroxy-1,8-dioxo-1,3,4,8-tetrahydro-2H-pyrido[1,2-a]pyrazine-7-carboxamide hydrochloride] was tested, and the IC50 was 0.01 to 0.1 µM.
Work on `O=c1c(-c2ccncc2)cn2ccn(Cc3cccc(F)c3)c(=O)c2c1O` [Example 375, 2-(3-fluorobenzyl)-9-hydroxy-7-(pyridin-4-yl)-2H-pyrido[1,2-a]pyrazine-1,8-dione hydrochloride] yielded an IC50 of 0.01 to 0.1 µM.
`CC(C)(C)C(=O)c1cn2ccn(Cc3cccc(F)c3)c(=O)c2c(O)c1=O` [Example 376, 7-(2,2-dimethylpropionyl)-2-(3-fluorobenzyl)-9-hydroxy-2H-pyrido[1,2-a]pyrazine-1,8-dione hydrochloride] was tested, and the IC50 was 0.01 to 0.1 µM.
With `O=C(NCc1ccccc1F)c1cn2c(c(O)c1=O)C(=O)N(Cc1ccc(F)cc1)CC2` [Example 377, N-(2-fluorobenzyl)-2-(4-fluorobenzyl)-9-hydroxy-1,8-dioxo-1,3,4,8-tetrahydro-2H-pyrido[1,2-a]pyrazine-7-carboxamide] the IC50 was < 0.01 µM.
In the case of `O=C(NCc1ccc(F)cc1)c1cn2c(c(O)c1=O)C(=O)N(Cc1ccc(F)cc1)CC2` [Example 378, N-(4-fluorobenzyl)-2-(4-fluorobenzyl)-9-hydroxy-1,8-dioxo-1,3,4,8-tetrahydro-2H-pyrido[1,2-a]pyrazine-7-carboxamide], the IC50 is reported as < 0.01 µM.
In the case of `CNC(=O)c1cn2c(c(O)c1=O)C(=O)N(Cc1ccc(F)cc1)CC2` [Example 379], the IC50 is reported as 0.1 to 1 µM.
`O=C(NCc1ccccc1)c1cn2c(c(O)c1=O)C(=O)N(Cc1ccc(F)cc1)CC2` [Example 380, N-benzyl-2-(4-fluorobenzyl)-9-hydroxy-1,8-dioxo-1,3,4,8-tetrahydro-2H-pyrido[1,2-a]pyrazine-7-carboxamide] gave an IC50 of 0.01 to 0.1 µM.
With `CNC(=O)c1cn2c(c(O)c1=O)C(=O)N(Cc1ccc(Cl)cc1)CC2` [Example 381, N-methyl-2-(4-chlorobenzyl)-9-hydroxy-1,8-dioxo-1,3,4,8-tetrahydro-2H-pyrido[1,2-a]pyrazine-7-carboxamide] the IC50 was 0.01 to 0.1 µM.
With `CCC(C)(C)C(=O)c1cn2ccn(Cc3ccc(F)cc3)c(=O)c2c(O)c1=O` [Example 382, 7-(2,2-dimethylbutyryl)-2-(4-fluorobenzyl)-9-hydroxy-2H-pyrido[1,2-a]pyrazine-1,8-dione hydrochloride] the IC50 was 0.01 to 0.1 µM.
For `O=C1c2c(O)c(=O)c(-c3cnccn3)cn2CCN1Cc1ccc(Cl)c(Cl)c1` [Example 383, 2-(3,4-dichlorobenzyl)-9-hydroxy-7-(pyrazin-2-yl)-3,4-dihydro-2H-pyrido[1,2-a]pyrazine-1,8-dione hydrochloride], the IC50 was 0.01 to 0.1 µM.
